What was measured:
Nucleic Acid [1] = conditions: at 10 µM
Description: Inhibition of N-acetylphenylalanine-tRNA peptide bond formation by fragment reaction at 10e-5 M

Nucleic Acid [2] = conditions: at 10 µM; remark: listed apart in the source
Description: Inhibition of N-acetylphenylalanine-tRNA peptide bond formation by puromycin reaction at 10E-5 M

Nucleic Acid [3] = conditions: at 1 µM
Description: Inhibition of N-acetylphenylalanine-tRNA peptide bond formation by puromycin reaction at 10E-6 M

Compound | inhibition (Nucleic Acid [1]) [%] | inhibition (Nucleic Acid [2]) [%] | inhibition (Nucleic Acid [3]) [%]
SPIRAMYCIN | 48 | 85 | 53
CC[C@H]1OC(=O)[C@H](C)[C@@H](O[C@H]2C[C@@](C)(OC)[C@@H](O)[C@H](C)O2)[C@H](C)[C@@H](O[C@@H]2O[C@H](C)C[C@H](N(C)C)[C@H]2O)[C@@](C)(O)C[C@@H](C)[C@H](NC(=O)CCCOc2ccc([N+](=O)[O-])cc2OC)[C@H](C)[C@@H](O)[C@]1(C)O | 11 | 25 | 13
CC[C@H]1OC(=O)[C@H](C)[C@@H](O[C@H]2C[C@@](C)(OC)[C@@H](O)[C@H](C)O2)[C@H](C)[C@@H](O[C@@H]2O[C@H](C)C[C@H](N(C)C)[C@H]2O)[C@@](C)(O)C[C@@H](C)[C@H](NC(=O)CNC(=O)CCCOc2ccc([N+](=O)[O-])cc2OC)[C@H](C)[C@@H](O)[C@]1(C)O | 24 | 30 | 18
CC[C@H]1OC(=O)[C@H](C)[C@@H](O[C@H]2C[C@@](C)(OC)[C@@H](O)[C@H](C)O2)[C@H](C)[C@@H](O[C@@H]2O[C@H](C)C[C@H](N(C)C)[C@H]2O)[C@@](C)(O)C[C@@H](C)[C@H](NC(=O)COc2cc(N=[N+]=[N-])ccc2CO)[C@H](C)[C@@H](O)[C@]1(C)O | 0 | 23 | 15

From ChEMBL document CHEMBL1124648, “Synthesis and biological activity of photoactive derivatives of erythromycin” (J Med Chem, 1989)
